From US20070049564A1 (Wyeth, priority 2005, published 2007)
Converted amounts (≈) assume the structure as drawn. Like-named read-outs stand apart in the source and are kept apart here.

How the values were obtained:
[1] = tested on: S. aureus GC 6466; assay: MIC, broth microdilution; conditions: for MIC: Staphylococcus aureus
[2] = tested on: E. faecium GC 2243; assay: MIC, broth microdilution; conditions: for MIC: Enterococcus faecium
[3] = tested on: S. typhimurium GC 2172; assay: MIC, broth microdilution; conditions: for MIC: Salmonella enterica, TYPHIMURIUM
[4] = tested on: E. coli GC 2235; assay: MIC, broth microdilution; conditions: Escherichia coli, GC2235, read-out: MINIMAL INHIBITORY CONCENTRATION MIC, pre-incubated in Water
[5] = tested on: Staph.; assay: Range of MIC for Staph. strains, including MRSA; conditions: Staphylococcus aureus
[6] = tested on: E. coli GC 4560; assay: MIC, broth microdilution; conditions: Escherichia coli, GC4560, read-out: MINIMAL INHIBITORY CONCENTRATION MIC, pre-incubated in Water
[7] = tested on: E. coli GC 6465; assay: MIC, broth microdilution; conditions: Escherichia coli, GC6465, read-out: MINIMAL INHIBITORY CONCENTRATION MIC, pre-incubated in Water
[8] = tested on: c. albicans GC 3066; assay: MIC, broth microdilution
[9] = tested on: S. aureus GC 2216; assay: MIC, broth microdilution; conditions: Staphylococcus aureus
[10] = tested on: S. aureus GC 6469; assay: MIC, broth microdilution; conditions: for MIC: Staphylococcus aureus
Experimental: Antimicrobial susceptibility testing. The in vitro activities of the antibiotics are determined by the broth microdilution method as recommended by the National Committee for Clinical Laboratory Standards (NCCLS) (1). Mueller-Hinton II broth (MHBII)(BBL Cockeysville, Md.) is the medium employed in the testing procedures. Microtiter plates containing serial dilutions of each antimicrobial agent are inoculated with each organism to yield the appropriate density (10^5 CFU/ml) in a 100 μl final volume. The plates are incubated for 18-22 hours at 35° C. in ambient air.
Representative compounds were first incubated in mouse serum for an hour prior to the in vitro testing against a panel of selected gram-positive and gram-negative bacteria strains. All compounds were also pre-incubated in water for an hour prior to testing as control.

[11] = tested on: E. coli GC 1073; assay: MIC, broth microdilution; conditions: Escherichia coli, GC1073, read-out: MINIMAL INHIBITORY CONCENTRATION MIC, pre-incubated in Water
[12] = tested on: S. aureus GC 6467; assay: MIC, broth microdilution; conditions: Staphylococcus aureus
[13] = tested on: E. coli; assay: Range of MIC for E. coli strains; conditions: Escherichia coli
[14] = tested on: S. aureus GC 4536; assay: MIC, broth microdilution; conditions: for MIC: Staphylococcus aureus
[15] = tested on: E. coli GC 2233; assay: MIC, broth microdilution; conditions: Escherichia coli, GC2233, read-out: MINIMAL INHIBITORY CONCENTRATION MIC, pre-incubated in Water
[16] = tested on: S. aureus GC 1079; assay: MIC, broth microdilution; conditions: for MIC: Staphylococcus aureus
[17] = tested on: E. faecium GC 4556; assay: MIC, broth microdilution; conditions: for MIC: Enterococcus faecium
[18] = tested on: E. coli GC 2231; assay: MIC, broth microdilution; conditions: Escherichia coli, GC2231, read-out: MINIMAL INHIBITORY CONCENTRATION MIC, pre-incubated in Water
[19] = tested on: E. faecalis GC 2242; assay: MIC, broth microdilution; conditions: Enterococcus faecalis
[20] = tested on: E. coli GC 2270; assay: MIC, broth microdilution; conditions: Escherichia coli, GC2270, read-out: MINIMAL INHIBITORY CONCENTRATION MIC, pre-incubated in Water

SMILES: CN(C)c1cc(NC(=O)CN(C(=O)OCOC(=O)CC(C)(C)C)C(C)(C)C)c(O)c2c1C[C@H]1C[C@H]3[C@H](N(C)C)C(O)=C(C(N)=O)C(=O)[C@@]3(O)C(O)=C1C2=O [Example 42, ({[(2-{[(5aR,6aS,7S,10aS)-9-(aminocarbonyl)-4,7-bis(dimethylamino)-1,8,10a,11-tetrahydroxy-10,12-dioxo-5,5a,6,6a,7,10,10a,12-octahydrotetracen-2-yl]amino}-2-oxoethyl)(tert-butyl)amino]carbonyl}oxy)methyl 3,3-dimethylbutanoate]
- MIC ([1]; GC6466, read-out: MINIMAL INHIBITORY CONCENTRATION MIC, pre-incubated in Mouse Serum): 2 µg/mL (≈ 2.64 µM)
- MIC ([1]; GC6466, read-out: MINIMAL INHIBITORY CONCENTRATION MIC, pre-incubated in Water): 4 µg/mL (≈ 5.28 µM)
- MINIMAL INHIBITORY CONCENTRATION MIC ([1]; pre-incubated in Mouse Serum): 4 UG/ML
- MIC ([2]; GC2243, read-out: MINIMAL INHIBITORY CONCENTRATION MIC, pre-incubated in Mouse Serum): 2 µg/mL (≈ 2.64 µM)
- MIC ([2]; GC2243, read-out: MINIMAL INHIBITORY CONCENTRATION MIC, pre-incubated in Water): 4 µg/mL (≈ 5.28 µM)
- MINIMAL INHIBITORY CONCENTRATION MIC ([2]; pre-incubated in Mouse Serum): 4 UG/ML
- MIC ([3]; read-out: MINIMAL INHIBITORY CONCENTRATION MIC, pre-incubated in Mouse Serum): 64 µg/mL (≈ 84.5 µM)
- MIC ([3]; read-out: MINIMAL INHIBITORY CONCENTRATION MIC, pre-incubated in Water): > 64 µg/mL
- MINIMAL INHIBITORY CONCENTRATION MIC ([3]; pre-incubated in Mouse Serum): >64 UG/ML
- MIC [4]: > 64 µg/mL
- MIC ([5]; MRSA, read-out: Range of MIC, Staph (Mouse Serum)): 2 to 4 µg/mL (≈ 2.64 to 5.28 µM)
- MIC ([5]; MRSA, read-out: Range of MIC, Staph (Water)): 4 to 8 µg/mL (≈ 5.28 to 10.6 µM)
- MIC ([5]; read-out: Minimum inhibitory concentration (MIC), Staph (Human Serum)): 2 to 4 µg/mL (≈ 2.64 to 5.28 µM)
- MIC ([5]; read-out: Minimum inhibitory concentration (MIC), Staph (Water)): 4 to 8 µg/mL (≈ 5.28 to 10.6 µM)
- MIC [6]: 8 µg/mL (≈ 10.6 µM)
- MIC [7]: > 64 µg/mL
- MIC ([8]; Candida albicans, GC3066, read-out: MINIMAL INHIBITORY CONCENTRATION MIC): > 64 µg/mL
- MINIMAL INHIBITORY CONCENTRATION MIC ([8]; pre-incubated in Mouse Serum): >64 UG/ML
- MIC ([9]; GC2216, read-out: MINIMAL INHIBITORY CONCENTRATION MIC, pre-incubated in Mouse Serum): 2 µg/mL (≈ 2.64 µM)
- MIC ([9]; GC2216, read-out: MINIMAL INHIBITORY CONCENTRATION MIC, pre-incubated in Water): 4 µg/mL (≈ 5.28 µM)
- MIC ([10]; GC6469, read-out: MINIMAL INHIBITORY CONCENTRATION MIC, pre-incubated in Mouse Serum): 2 µg/mL (≈ 2.64 µM)
- MIC ([10]; GC6469, read-out: MINIMAL INHIBITORY CONCENTRATION MIC, pre-incubated in Water): 4 µg/mL (≈ 5.28 µM)
- MINIMAL INHIBITORY CONCENTRATION MIC ([10]; pre-incubated in Mouse Serum): 4 UG/ML
- MIC [11]: > 64 µg/mL
- MIC ([12]; GC6467, read-out: MINIMAL INHIBITORY CONCENTRATION MIC, pre-incubated in Mouse Serum): 4 µg/mL (≈ 5.28 µM)
- MIC ([12]; GC6467, read-out: MINIMAL INHIBITORY CONCENTRATION MIC, pre-incubated in Water): 8 µg/mL (≈ 10.6 µM)
- MIC ([13]; 20 h, read-out: Range of MIC, E. coli (Mouse Serum)): 4 to 16 µg/mL (≈ 5.28 to 21.1 µM)
- MIC ([13]; read-out: Minimum inhibitory concentration (MIC), E. coli (Human Serum)): > 64 µg/mL
- MIC ([13]; read-out: Minimum inhibitory concentration (MIC), E. coli (water)): > 64 µg/mL
- MIC ([13]; read-out: Range of MIC, E. coli (Water)): > 64 µg/mL
- MIC ([14]; GC4536, read-out: MINIMAL INHIBITORY CONCENTRATION MIC, pre-incubated in Mouse Serum): 2 µg/mL (≈ 2.64 µM)
- MIC ([14]; GC4536, read-out: MINIMAL INHIBITORY CONCENTRATION MIC, pre-incubated in Water): 8 µg/mL (≈ 10.6 µM)
- MINIMAL INHIBITORY CONCENTRATION MIC ([14]; pre-incubated in Mouse Serum): 4 UG/ML
- MIC [15]: > 64 µg/mL
- MIC ([16]; GC1079, read-out: MINIMAL INHIBITORY CONCENTRATION MIC, pre-incubated in Mouse Serum): 2 µg/mL (≈ 2.64 µM)
- MIC ([16]; GC1079, read-out: MINIMAL INHIBITORY CONCENTRATION MIC, pre-incubated in Water): 4 µg/mL (≈ 5.28 µM)
- MINIMAL INHIBITORY CONCENTRATION MIC ([16]; pre-incubated in Mouse Serum): 4 UG/ML
- MIC ([17]; GC4556, read-out: MINIMAL INHIBITORY CONCENTRATION MIC, pre-incubated in Mouse Serum): 2 µg/mL (≈ 2.64 µM)
- MIC ([17]; GC4556, read-out: MINIMAL INHIBITORY CONCENTRATION MIC, pre-incubated in Water): 8 µg/mL (≈ 10.6 µM)
- MINIMAL INHIBITORY CONCENTRATION MIC ([17]; pre-incubated in Mouse Serum): 4 UG/ML
- MIC [18]: > 64 µg/mL
- MIC ([19]; GC2242, read-out: MINIMAL INHIBITORY CONCENTRATION MIC, pre-incubated in Mouse Serum): 4 µg/mL (≈ 5.28 µM)
- MIC ([19]; GC2242, read-out: MINIMAL INHIBITORY CONCENTRATION MIC, pre-incubated in Water): 8 µg/mL (≈ 10.6 µM)
- MIC [20]: > 64 µg/mL
